Measurements taken from US20190017029A1, “Generation of Expandable Cardiovascular Progenitor Cells” (The J. David Gladstone Institutes, a testament trust …, priority 2016, published 2019).

Key:
Format in all cases: cell-based, mouse
[1] = system: ieCPCs; experiment: Cardiac (CM) differentiation of ieCPCs, cTnT expression; conditions: 20 ng/ml BMP4 or 5 μM IWP2 versus basal differentiation medium
Procedure: For cardiac differentiation, ieCPCs were passaged onto 96-well matrigel-coated plates at a density of […] cells/cm^2 and cultured in serum-free differentiation (SFD) medium for 10 days. IWP2 (5 μM) was added to SFD medium during the first six days to increase the yield of cardiomyocytes (CMs) in the functional characterization assays.
Differentiation efficiency of each cell type was calculated with qPCR, flow cytometry, and/or an In Cell Analyzer 2000 (General Electric Healthcare).
After washing cells three times with PBS, the cells were incubated with isotype-matched Alexa Fluorescence-conjugated secondary antibodies (Invitrogen) for 1 hour at room temperature. […] The expression of cTnT (measured by multiplying staining intensity and area) and Isl1 or α-SMA (percentage in total cells) were monitored and analyzed by an IN Cell Analyzer 2000.
To detect intracellular antigens, dissociated cells were fixed and permeabilized with a BD Cytofix/Cytoperm™ Fixation/Permeabilization Kit (BD Biosciences), and then incubated with antibodies for cTnT (MS-295-P1 Thermo Scientific; 1:200) and α-SMA (A-2547, Sigma-Aldrich; 1:200) at 4° C. overnight. After three washes, cells were incubated with isotype-matched Alexa Fluorescence-conjugated secondary antibodies (Invitrogen) for 1 hour at room temperature and detected by an LSR II Flow Cytometer (BD Biosciences).

[2] = system: Flk-1^+/PdgfR-α^+ cells; experiment: Flow cytometry of Flk-1+/PdgfR-α+ cells during CASD cardiac reprogramming of 2nd MEFs treated with BACS; conditions: NU6140 4 μM along with BACS from day 8; day 14
Procedure: A Cell-Activation and Signaling-Directed (CASD) system-based cardiac reprogramming was conducted using methods described by Efe et al. (2011). Briefly, 2nd MEFs at passage 3 were seeded onto geltrex (Gibco)-coated plates at a density of 2.5×10^4 cells/well of a 12-well plate in MEF medium (day −2). Doxycycline (DOX; 2 μg/ml, Sigma-Aldrich) was added into the medium one day later (day −1) and the cells were cultured for another day. Medium was then changed to reprogramming medium (knockout DMEM supplemented with 5% knockout serum replacement (KSR), 15% embryonic stem cell (ESC)-qualified FBS, 1× Glutamax, 1×NEAA, 0.1 mM β-mercaptoethanol (β-ME), 1% ESC-qualified nucleosides (Millipore), 0.5 μM Jak inhibitor 1 (JI1; Millipore), and 2 μg/ml DOX) at day 0. This medium was renewed every 2 days. […]
On day 8, the medium was switched to ieCPC basal medium (Advanced DMEM/F12: Neural basal (1:1) supplemented with 1×N2, 1×B27 without Vitamin A, 1× Glutamax, 1×NEAA, 0.05% bovine serum albumin (BSA), and 0.1 mM β-ME) supplemented with BACS (5 ng/ml BMP4, 10 ng/ml Activin A, 3 μM CHIR99021, and 2 μM SU5402 (Tocris Bioscience)). JI1 (0.5 μM) was included to suppress the establishment of pluripotency until the cells were ready for purification at day 13. […]

[3] = system: ieCPC-CMs; experiment: Beating frequency and Ca2+ transients in ieCPC-CMs, pharmacological studies
Procedure: Contracting cardiomyocytes derived from ieCPCs (ieCPC-CMs) were dispersed by first treating cells with Collagenase B for 5-10 min and then with Accutase for 5 min. Dissociated cells were replated onto matrigel-coated coverslips (Warner Instruments). After visible beating was reconfirmed, the coverslips were loaded with the Ca^2+-sensitive fluorescent indicator Fluo-4 (see below), and then placed in a superfusion bath (Warner Instruments) on a Nikon TiS inverted microscope equipped with a microfluorometer (lonOptix). Superfusion solutions were warmed to 30° C. with a superfusion system and heated perfusion pencil (ValveLink, AutoMate Scientific).
The ieCPC-CMs on coverslips were loaded with Fluo-4 AM in a 1:10 mixture of the indicator dissolved in dry dimethyl sulfoxide at 5 mM, plus Powerload concentrate (Life Technologies). This mixture was diluted 100-fold into extracellular Tyrode's solution and substituted for culture medium in dishes containing coverslips (final indicator concentration, 5 μM). […] Fluo-4 fluorescence transients were recorded with a standard filter set with excitation and emission centered on 480 nm and 535 nm, respectively (Chroma Technology).
Fluorescence was obtained from contracting cells plus a cell-free border using a cell-framing adaptor (IonOptix). Background fluorescence, recorded after removing the cell(s) from the field of view, was subtracted from all recordings. […] Background-corrected fluorescence transients were expressed relative to the diastolic fluorescence between spontaneous APs and were considered to reflect underlying changes in intracellular Ca^2+ concentration. Unless stated, reagents were from Sigma Chem. Co. Pharmacological studies were conducted on the spontaneous fluorescence transients of non-patch-clamped myocytes, and, to maximize coverslip usage, pharmacological agents were applied locally (only to the cell or cluster of interest) with the perfusion pencil.

[4] = system: ieCPC-SMCs; experiment: Contractile assay of smooth muscle cells in vitro; conditions: 100 μM carbachol; seen in primary SMCs, not in undifferentiated ieCPCs
Procedure: ieCPCs, ieCPC-SMCs, and primary SMCs were treated with carbachol (100 μM, Sigma-Aldrich) and monitored with a Zeiss Axio Observer microscope in a time-lapse manner at 10-minute intervals for 1 hour. Cell-surface areas were then calculated with ImageJ software.

Cc1ccc2nc(NC(=O)CSc3nc4c(c(=O)n3-c3ccccc3)SCC4)sc2c1 [IWP2]
cardiac differentiation of ieCPCs (cTnT) [1]: dramatically enhanced

CCN(CC)C(=O)c1ccc(Nc2nc(OCC3CCCCC3)c3[nH]cnc3n2)cc1 [NU6140]
ratio of Flk-1+/PdgfR-α+ cells [2]: dramatically decreased

Cn1c(=O)c2c(ncn2C)n(C)c1=O [caffeine]
Ca2+ transients (release from sarcoplasmic reticulum) ([3]; 10 mM caffeine): elicited large Ca^2+ transients

C[N+](C)(C)CCOC(N)=O [carbachol]
effect on the isoproterenol-induced increase of frequency ([3]; 10 μM carbachol): blocked | contraction of ieCPC-SMCs [4]: induced contraction

CC(C)NCC(O)c1ccc(O)c(O)c1 (stereo not shown) [isoproterenol]
frequency of cell contraction and spontaneous Ca2+ transients ([3]; 1 μM isoproterenol): significantly increased

B1: BMP4: member of the group of bone morphogenic proteins and a ventral mesoderm inducer (protein, UniProt P12644 293-408, looked up)
Bone morphogenetic protein 4: SPKHHSQRARKKNKNCRRHSLYVDFSDVGWNDWIVAPPGYQAFYCHGDCPFPLADHLNSTNHAIVQTLVNSVNSSIPKACCVPTELSAISMLYLDEYDKVVLKNYQEMVVEGCGCR
cardiac differentiation of ieCPCs (cTnT) [1]: significantly impaired
